“Also recorded” adds a separate entry of the source.
What was measured:
[1] = stated in the formulation process; cited from earlier work
[2] = test system: Sunchillo (White aster); assay: Weed control in apple culture (Example 5): Sunchillo; type: in vivo, Wedelia glauca; details: 4 l/ha (1,440 g/ha 100% acid)
Method: (§1) Observations: Only one dose of each product was tested in three repetitions, on areas of 2 m×8 m=16 m^2.

[3] = test system: jungle rice and Aleppo grass; assay: Field observations on activity rate: control of jungle rice and Aleppo grass (Example 3); type: in vivo; design: key: beginning of the effect (BE); death of the plant (DP); without symptoms (WS); details: visual, 5,000 cm^3/ha (SQUADRON 24% 10,000)
Method: (§2) Products were applied on a plot with maize stubble, preparing it for sowing wheat, where most abundant weeds were Aleppo grass (Sorghum halepense), water grass, jungle rice (Echinochloa crusgalli, Echinochloa colonum), and Bermuda grass (Cynodon dactylon).
(§3) The assessment was performed visually on 3, 4, 5, 8, and 10 days after application for jungle rice, and Aleppo grass, and 4,7,10, and 14 days for Bermuda grass, where the obtained effects were recorded and identified as follows: beginning of the effect (BE), death of the plant (DP), and without symptoms (WS).

[4] = test system: Blite, Pigweed, and Aleppo grass; assay: Control of soy weeds (Example 6): Blite, Pigweed, and Aleppo grass; type: in vivo, Amaranthus quitensis, Chenopodium album, Sorghum halepense
Text: (§4) OBJECTIVE: The subject of the present assay comprises the assessment of different Glyphosate formulations on annual and perennial weeds in a resistant soy crop.
(§5) Crop data were as follows: • Species: Soya • Variety: A-6443 • See-planting time: Second. • Preceding crop: Wheat • Density of seeds planted: 33 grains/m^2 • Density of grown plants: 28 pl/m^2 • Space between furrows: 0.52 m. • Culture system: Direct seed-planting. • Phenologic status on application: R-4/5
(§6) Random blocks design was used, with four repetitions per treatment. The size of the parcels were: 4 m wide per 15 m long (60 m^2), totaling 240 m^2 per treatment.
(§7) The product was applied with a carbon dioxide (CO2) hand backpack, provided with four tips separated by 0.50 m each, with a plain fan-type 110 O2 pastille. Applied volume was of 110 1/ha, at a pressure of 45 lb/cm^2
(§8) The assessments were carried out visually by comparison with control non-applied parcels, and at 5, 10, 15, and 25 days after the application date en each case, where the intervals between each application from the beginning of the treatment were 5, 5, and 10 days, respectively.
(§9) Variance analysis (ANOVA) and Duncan Test were performed with the results obtained, in order to detect mean differences.

[5] = test system: Bermuda grass and Nutgrass; assay: Control of soy weeds (Example 6): Bermuda grass and Nutgrass; type: in vivo, Cynodon dactylon, Cyperus rotundus
Text: as §4, §5, §6, §7, §8, §9

[6] = test system: Soya A-6443; assay: Phytotoxicity on the soy crop (Example 6); type: in vivo; details: 2,000 and 3,000 cm^2/ha; soy at R-4/5
Text: as §4, §5, §7

[7] = test system: Bermuda grass; assay: Weed control in apple culture (Example 5): Bermuda grass; type: in vivo, Cynodon dactylon; details: 4 l/ha (1,440 g/ha 100% acid)
Method: as §1

[8] = test system: Apple, Red Delicious; assay: Phytotoxicity to the fruit tree (Example 5); type: in vivo; details: apple culture; 4 l/ha
Method: Variety: Hybrid. Red Delicious.
Phenologic status: with fruits of 2 cm diameter.
as §1

[9] = test system: Bermuda grass; assay: Field observations on activity rate: control of Bermuda grass (Example 3); type: in vivo, Cynodon dactylon; design: key: beginning of the effect (BE); death of the plant (DP); without symptoms (WS); details: visual, 5,000 cm^3/ha (SQUADRON 24% 10,000)
Method: as §2, §3

[10] = test system: Aleppo grass, Bermuda grass, Blite, Wild buckwheat, Nutgrass; assay: Field comparison of salt, trunk mixture and Rondo on renovation ground prior to cane plantation (Example 4); type: in vivo; details: scale (1) out of control to (10) excellent control
Text: APPLICATION: On renovation ground
TYPE OF TREATMENT: TOTAL (PRIOR TO CANE PLANTATION)
EXPERIMENTAL DESIGN: RANDOMIZED BLOCKS
VOLUME PER HECTARE: 120 liters

[11] = test system: Aleppo grass; assay: Weed control in apple culture (Example 5): Aleppo grass; type: in vivo, Sorghum halepensis; details: 4 l/ha (1,440 g/ha 100% acid)
Method: as §1

[12] = Glyphosate triazolamine salt 2,000 / Rondo 2,500 cm^2/ha
[13] = Glyphosate triazolamine salt 3,000 / Rondo 5,000 cm^2/ha

## Nc1nc[nH]n1 [triazolamine, 1H-1,2,4-triazol-3-yl-amine]
[1]
  solubility in water (general statement): quite soluble

## 1H-1,2,4-triazole-3-yl-amine N-(phosphonomethyl)-glycine salt [Glyphosate triazolamine salt]
[2]; 38 days after application
  COUNT, averages of blocks, C (Sunchillo): 75
[2]; 51 days after application
  COUNT, averages of blocks, C (Sunchillo): 90
[2]; 99 days after application
  COUNT, averages of blocks, C (Sunchillo): 98
[3]; 3 days after application
  Control of jungle rice and Aleppo grass, 3 DAYS: BE
[3]; 4 days after application
  Control of jungle rice and Aleppo grass, 4 DAYS: BE
[3]; 5 days after application
  Control of jungle rice and Aleppo grass, 5 DAYS: DP
[3]; 8 days after application
  Control of jungle rice and Aleppo grass, 8 DAYS: DP
[3]; 10 days after application
  Control of jungle rice and Aleppo grass, 10 DAYS: DP
[4]; [12]
  Control % after 5 DAYS, data average by assessment date: 58.33%
  Control % after 10 DAYS, data average by assessment date: 100.00%
  Control % after 15 DAYS, data average by assessment date: 100.00%
  Control % after 25 DAYS, data average by assessment date: 100.00%
  Control % after 5 days, I: 60%
  Control % after 5 days, II: 55%
  Control % after 5 days, III: 60%
  Control % after 5 days, MEAN: 58.33%
  Control % after 10 days, I: 100%
  Control % after 10 days, II: 100%
  Control % after 10 days, III: 100%
  Control % after 10 days, MEAN: 100.00%
  Control % after 15 days, I: 100%
  Control % after 15 days, II: 100%
  Control % after 15 days, III: 100%
  Control % after 15 days, MEAN: 100.00%
  Control % after 10 days, I (TABLE NO. 4): 100%
  Control % after 10 days, II (TABLE NO. 4): 100%
  Control % after 10 days, III (TABLE NO. 4): 100%
  Control % after 10 days, MEAN (TABLE NO. 4): 100.00%
[4]; [13]
  Control % after 5 DAYS, data average by assessment date: 95.00%
  Control % after 10 DAYS, data average by assessment date: 100.00%
  Control % after 15 DAYS, data average by assessment date: 100.00%
  Control % after 25 DAYS, data average by assessment date: 100.00%
  Control % after 5 days, I: 100%
  Control % after 5 days, II: 90%
  Control % after 5 days, III: 95%
  Control % after 5 days, MEAN: 95.00%
  Control % after 10 days, I: 100%
  Control % after 10 days, II: 100%
  Control % after 10 days, III: 100%
  Control % after 10 days, MEAN: 100.00%
  Control % after 15 days, I: 100%
  Control % after 15 days, II: 100%
  Control % after 15 days, III: 100%
  Control % after 15 days, MEAN: 100.00%
  Control % after 10 days, I (TABLE NO. 4): 100%
  Control % after 10 days, II (TABLE NO. 4): 100%
  Control % after 10 days, III (TABLE NO. 4): 100%
  Control % after 10 days, MEAN (TABLE NO. 4): 100.00%
[5]; [12]
  Control % after 5 days, I: 60%
  Control % after 5 days, II: 50%
  Control % after 5 days, III: 50%
  Control % after 5 days, MEAN: 53.00%
  Control % after 10 days, I: 75%
  Control % after 10 days, II: 90%
  Control % after 10 days, III: 90%
  Control % after 10 days, MEAN: 85.00%
  Control % after 15 days, I: 85%
  Control % after 15 days, II: 90%
  Control % after 15 days, III: 90%
  Control % after 15 days, MEAN: 88.33%
  Control % after 25 days, I: 85%
  Control % after 25 days, II: 90%
  Control % after 25 days, III: 90%
  Control % after 25 days, MEAN: 88.33%
  Control %, 5 DAYS, data average by assessment date: 53.33 B %
  Control %, 10 DAYS, data average by assessment date: 85.00 BC %
  Control %, 15 DAYS, data average by assessment date: 88.33 B %
  Control %, 25 DAYS, data average by assessment date: 83.33 B %
[5]; [13]
  Control % after 5 days, I: 70%
  Control % after 5 days, II: 80%
  Control % after 5 days, III: 75%
  Control % after 5 days, MEAN: 75.00%
  Control % after 10 days, I: 100%
  Control % after 10 days, II: 100%
  Control % after 10 days, III: 100%
  Control % after 10 days, MEAN: 100.00%
  Control % after 15 days, I: 100%
  Control % after 15 days, II: 100%
  Control % after 15 days, III: 100%
  Control % after 15 days, MEAN: 100.00%
  Control % after 25 days, I: 100%
  Control % after 25 days, II: 100%
  Control % after 25 days, III: 100%
  Control % after 25 days, MEAN: 100.00%
  Control %, 5 DAYS, data average by assessment date: 75.00 A %
  Control %, 10 DAYS, data average by assessment date: 100.00 A %
  Control %, 15 DAYS, data average by assessment date: 100.00 A %
  Control %, 25 DAYS, data average by assessment date: 100.00 A %
[5]; higher dosage treatments: Glyphosate triazolamine salt 3,000 / Rondo 5,000 cm^2/ha
  final control over Bermuda grass and nutgrass: total control
[6]
  phytotoxicity on soy leaves / soy crops: showed phytotoxicity problems on soy leaves; also recorded: showed phytotoxicity over soy crops
[7]; 38 days after application
  COUNT, averages of blocks, B (Bermuda grass): 70
[7]; 51 days after application
  COUNT, averages of blocks, B (Bermuda grass): 80
[7]; 99 days after application
  COUNT, averages of blocks, B (Bermuda grass): 90
[8]
  phytotoxicity to the fruit tree: No phytotoxicity to the fruit tree was observed
[9]; 4 days after application
  Control of Bermuda grass, 4 DAYS: BE
[9]; 7 days after application
  Control of Bermuda grass, 7 DAYS: BE
[9]; 10 days after application
  Control of Bermuda grass, 10 DAYS: DP
[9]; 14 days after application
  Control of Bermuda grass, 14 DAYS: DP
[10]; 3 liters/ha
  ASSAY OBSERVATIONS, control, 5 DAYS: 4
  ASSAY OBSERVATIONS, control, 15 DAYS: 7
  ASSAY OBSERVATIONS, control, 30 DAYS: 9
[10]; 4 liters/ha
  ASSAY OBSERVATIONS, control, 5 DAYS: 4
  ASSAY OBSERVATIONS, control, 15 DAYS: 7
  ASSAY OBSERVATIONS, control, 30 DAYS: 10
[11]; 38 days after application
  COUNT, averages of blocks, A (Aleppo grass): 65
[11]; 51 days after application
  COUNT, averages of blocks, A (Aleppo grass): 85
[11]; 99 days after application
  COUNT, averages of blocks, A (Aleppo grass): 95

## O=C(O)CNCP(=O)(O)O [Glyphosate, N-(phosphonomethyl)-glycine]
[1]
  solubility in water (general statement): practically non-soluble in water

— US20050054531A1, “N-(phosphonomethyl) glycine (glyphosate) salt, a preparation process thereof, a concentrate composition and a phytotoxic formulation comprising it, and a method to combat weeds in a crop with a formulation thereto” (priority 2003, published 2005)
